What was measured:
Assay type in all cases: physicochemical
[1] = Moisture-sorption isotherm (VTI)
Description: Form A of Compound (I) is non-hygroscopic with less than 0.1 weight % gain between 25 to 75% relative humidity at 25° C.
Moisture-sorption isotherms were collected in a TA Instrument VTI-SA+ Vapor Sorption Analyzer using approximately 10 mg of sample. The sample was dried at 60° C. until the loss rate of 0.0005 wt %/min was obtained for 10 minutes. The sample was tested at 25° C. and 3 or 4, 5, 15, 25, 35, 45, 50, 65, 75, 85, and 95% relative humidity (RH). Equilibration at each relative humidity was reached when the rate of 0.0003 wt %/min for 35 minutes was achieved or a maximum of 600 minutes.

[2] = Chemical stability (% Assay) of micronized Form A stored at different temperature and humidity conditions
Description: Samples of micronized Form A of Compound (I) were stored at different conditions of temperature and humidity for 4 weeks. The physical stability, characterized by DSC, TGA, and PXRD, were measured at 2 and 4 weeks.

[3] = Physical stability on storage, characterized by DSC, TGA and PXRD; conditions: samples stored for 4 weeks at different conditions of temperature and humidity, TGA, PXRD
Description: X-ray powder diffraction (PXRD) data were obtained using a Bruker C2 GADDS with Vantec-500 detector. The radiation was Cu Kα (40 KV, 40 mA). The sample-detector distance was […]. Incident optics include Goebel mirror and 0.3 mm collimator. Powder samples were placed in sealed glass capillaries of 1 mm or less in diameter; the capillary was rotated during data collection. Data were collected for 2≤2θ≤35° with a sample exposure time of at least 1000 seconds. The resulting two-dimensional diffraction arcs were integrated to create a traditional 1-dimensional PXRD pattern with a step size of 0.05 degrees 2θ in the range of ˜2 to ˜30 degrees 2θ.
Differential scanning calorimetry (DSC) experiments were performed in a TA Instruments™ model Q2000. The sample (about 2-6 mg) was weighed in an aluminum pan and recorded accurately recorded to a hundredth of a milligram, and transferred to the DSC. […] Data were collected between room temperature and 300° C. at 10° C./min heating rate. The plot was made with the endothermic peaks pointing down.
Thermal gravimetric analysis (TGA) experiments were performed in a TA Instruments™ model Q5000. The sample (about 10-30 mg) was placed in a platinum pan previously tared. […] The furnace was purged with nitrogen gas at 100 mL/min. Data were collected between room temperature and 300° C. at 10° C./min heating rate.

[4] = at the tested temperature and humidity conditions

[2H]C([2H])([2H])NC(=O)c1nnc(NC(=O)C2CC2)cc1Nc1cccc(-c2ncn(C)n2)c1OC [Form A of Compound (I), 6-(cyclopropanecarboxamido)-4-((2-methoxy-3-(1-methyl-1H-1,2,4-triazol-3-yl)phenyl)amino)-N-(methyl-d3)pyridazine-3-carboxamide]
Weight gain ([1]; between 25 to 75% relative humidity at 25° C.): less than 0.1 weight %
Hygroscopicity ([1]; moisture sorption isotherm at 25° C.): non-hygroscopic
% Assay ([2]; High Intensity Light/UV, 2 weeks): 99.3%
% Assay ([2]; High Intensity Light/UV, 4 weeks): 99.2%
Impurity profiles [2, 4]: remain unchanged
Physical or chemical degradation [2, 4]: no significant physical or chemical degradation
Change in chemical stability ([2]; samples of Table 2, stored up to 4 weeks): no measure change in chemical stability
% Assay ([2]; stored at 5° C. (control), 2 weeks): 99.2%
% Assay ([2]; stored at 5° C. (control), 4 weeks): 99.2%
% Assay ([2]; stored at 25° C./60% relative humidity (closed), 2 weeks): 99.2%
% Assay ([2]; stored at 25° C./60% relative humidity (closed), 4 weeks): 99.2%
% Assay ([2]; stored at 40° C./75% relative humidity (open), 2 weeks): 99.2%
% Assay ([2]; stored at 40° C./75% relative humidity (open), 4 weeks): 99.2%
% Assay ([2]; stored at 50° C., 2 weeks): 99.2%
% Assay ([2]; stored at 50° C., 4 weeks): 99.2%
Change in physical form [3]: No change in the physical form was detected
